Laboratory results: PubChem BioAssay AID256 (DTP/NCI, 2004)
Where “and” joins values, the source holds several entries; their conditions need not be identical. Equal values may be shown once. Inconclusive results and toxic doses are left out.

System: CD2F1 mice, L1210 leukemia ip, survival T/C
Assay: NCI In Vivo Anticancer Drug Screen. Data for tumor model L1210 Leukemia (intraperitoneal) in CD2F1 (CDF1) mice
Conditions: higher = longer survival
How it was run: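 Vehicle-treated tumor-bearing mice served as controls (C) for compound-treated mice (T). Reported figure is T divided by C.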

[1] = endpoint: mean survival time, dose: 12.5 mg/kg/injection, schedule: Q01DX009 (ip), vehicle: saline with Tween-80
[2] = endpoint: mean survival time, dose: 25.0 mg/kg/injection, schedule: Q01DX009 (ip), vehicle: saline with Tween-80
[3] = endpoint: mean survival time, dose: 50.0 mg/kg/injection, schedule: Q01DX009 (ip), vehicle: saline with Tween-80
[4] = endpoint: mean survival time, dose: 100.0 mg/kg/injection, schedule: Q01DX001 (ip), vehicle: saline
[5] = endpoint: mean survival time, dose: 200.0 mg/kg/injection, schedule: Q01DX001 (ip), vehicle: saline
[6] = endpoint: mean survival time, dose: 200.0 mg/kg/injection, schedule: Q01DX009 (ip), vehicle: saline with Tween-80
[7] = endpoint: mean survival time, dose: 400.0 mg/kg/injection, schedule: Q01DX001 (ip), vehicle: saline
[8] = endpoint: mean survival time, dose: 100.0 mg/kg/injection, schedule: Q04DX002 (ip), vehicle: saline with Tween-80
[9] = endpoint: mean survival time, dose: 200.0 mg/kg/injection, schedule: Q04DX002 (ip), vehicle: saline with Tween-80
[10] = endpoint: mean survival time, dose: 100.0 mg/kg/injection, schedule: Q04DX003 (ip), vehicle: saline with Tween-80
[11] = endpoint: mean survival time, dose: 400.0 mg/kg/injection, schedule: Q04DX003 (ip), vehicle: saline with Tween-80
[12] = endpoint: mean survival time, dose: 12.5 mg/kg/injection, schedule: Q01DX009 (ip), vehicle: other
[13] = endpoint: mean survival time, dose: 25.0 mg/kg/injection, schedule: Q01DX009 (ip), vehicle: other
[14] = endpoint: mean survival time, dose: 50.0 mg/kg/injection, schedule: Q01DX009 (ip), vehicle: other
[15] = endpoint: mean survival time, dose: 100.0 mg/kg/injection, schedule: Q01DX009 (ip), vehicle: other
[16] = endpoint: mean survival time, dose: 200.0 mg/kg/injection, schedule: Q01DX009 (ip), vehicle: other
[17] = endpoint: mean survival time, dose: 100.0 mg/kg/injection, schedule: Q01DX001 (ip), vehicle: saline with Tween-80
[18] = endpoint: mean survival time, dose: 200.0 mg/kg/injection, schedule: Q01DX001 (ip), vehicle: saline with Tween-80
[19] = endpoint: mean survival time, dose: 400.0 mg/kg/injection, schedule: Q01DX001 (ip), vehicle: saline with Tween-80
[20] = endpoint: mean survival time, dose: 400.0 mg/kg/injection, schedule: Q01DX009 (ip), vehicle: saline with Tween-80

S=c1nc(-c2ccccc2)c(-c2ccccc2)n[nH]1
T/C (endpoint: mean survival time, dose: 75.0 mg/kg/injection, schedule: Q01DX009 (ip), vehicle: saline): 93 % of control | T/C (endpoint: mean survival time, dose: 150.0 mg/kg/injection, schedule: Q01DX009 (ip), vehicle: saline): 98 % of control

CCCCCCCCCCCCCCCCCCNC(=O)Nc1ccc(C)cc1C
T/C (endpoint: mean survival time, dose: 100.0 mg/kg/injection, schedule: Q01DX009 (ip), vehicle: saline + alcohol): 98 % of control | T/C (endpoint: mean survival time, dose: 100.0 mg/kg/injection, schedule: Q04DX003 (ip), vehicle: saline + alcohol): 89 % of control | T/C (endpoint: mean survival time, dose: 200.0 mg/kg/injection, schedule: Q01DX009 (ip), vehicle: saline + alcohol): 104 % of control | T/C (endpoint: mean survival time, dose: 200.0 mg/kg/injection, schedule: Q04DX003 (ip), vehicle: saline + alcohol): 100 % of control | T/C (endpoint: mean survival time, dose: 400.0 mg/kg/injection, schedule: Q01DX009 (ip), vehicle: saline + alcohol): 107 % of control | T/C (endpoint: mean survival time, dose: 400.0 mg/kg/injection, schedule: Q04DX003 (ip), vehicle: saline + alcohol): 89 % of control

CN1CCCN(C)C1c1ccccc1O
T/C [1]: 105 % of control | T/C [2]: 102 % of control | T/C [3]: 107 % of control

COC1OC(CO)C(n2cnc3c2c(=O)n(C)c(=O)n3C)C=C1NC(C)=O (centres undefined)
T/C (endpoint: mean survival time, dose: 12.5 mg/kg/injection, schedule: Q01DX005 (ip), vehicle: distilled water + Tween-80): 100 % of control | T/C (endpoint: mean survival time, dose: 12.5 mg/kg/injection, schedule: Q01DX005 (ip), vehicle: water): 88 % of control | T/C (endpoint: mean survival time, dose: 25.0 mg/kg/injection, schedule: Q01DX005 (ip), vehicle: distilled water + Tween-80): 96 % of control | T/C (endpoint: mean survival time, dose: 25.0 mg/kg/injection, schedule: Q01DX005 (ip), vehicle: water): 96 % of control | T/C (endpoint: mean survival time, dose: 50.0 mg/kg/injection, schedule: Q01DX005 (ip), vehicle: water): 92 % of control | T/C (endpoint: mean survival time, dose: 100.0 mg/kg/injection, schedule: Q01DX005 (ip), vehicle: distilled water + Tween-80): 92 % of control | T/C (endpoint: mean survival time, dose: 100.0 mg/kg/injection, schedule: Q01DX005 (ip), vehicle: water): 103 % of control | T/C (endpoint: mean survival time, dose: 200.0 mg/kg/injection, schedule: Q01DX005 (ip), vehicle: distilled water + Tween-80): 100 % of control | T/C (endpoint: mean survival time, dose: 200.0 mg/kg/injection, schedule: Q01DX005 (ip), vehicle: water): 96 % of control

CN(C)/N=C(\CBr)c1ccc([N+](=O)[O-])cc1
T/C [4]: 100 % of control | T/C [5]: 94 % of control

COC1=C(OC)C(=O)C(C/C=C(\C)CC/C=C(\C)CC/C=C(\C)CC/C=C(\C)CC/C=C(\C)CC/C=C(\C)CC/C=C(\C)CC/C=C(\C)CC/C=C(\C)CCC=C(C)C)=C(C)C1=O
T/C (endpoint: mean survival time, dose: 6.25 mg/kg/injection, schedule: Q01DX009 (ip), vehicle: saline with Tween-80): 116 % of control and 97 % of control | T/C [1]: 98 % of control and 100 % of control | T/C [2]: 94 % of control and 100 % of control | T/C [3]: 97 % of control and 106 % of control | T/C [4]: 96 % of control | T/C (endpoint: mean survival time, dose: 100.0 mg/kg/injection, schedule: Q01DX009 (ip), vehicle: saline with Tween-80): 94 % of control and 102 % of control | T/C [5]: 92 % of control | T/C [6]: 97 % of control and 100 % of control | T/C [7]: 94 % of control

CC([NH-])c1ccccc1.[Cl][Pt]([Cl])[Cl] (centres undefined)
T/C (endpoint: mean survival time, dose: 100.0 mg/kg/injection, schedule: Q04DX003 (ip), vehicle: saline): 101 % of control | T/C (endpoint: mean survival time, dose: 200.0 mg/kg/injection, schedule: Q04DX003 (ip), vehicle: saline): 100 % of control | T/C (endpoint: mean survival time, dose: 400.0 mg/kg/injection, schedule: Q04DX003 (ip), vehicle: saline): 101 % of control

C1CC2(CCC13CO3)CO2 (centres undefined)
T/C (endpoint: mean survival time, dose: 25.0 mg/kg/injection, schedule: Q04DX002 (ip), vehicle: saline with Tween-80): 91 % of control | T/C (endpoint: mean survival time, dose: 50.0 mg/kg/injection, schedule: Q04DX002 (ip), vehicle: saline with Tween-80): 91 % of control and 103 % of control | T/C (endpoint: mean survival time, dose: 100.0 mg/kg/injection, schedule: Q04DX002 (ip), vehicle: Klucel (hydroxypropylcellulose) (HPC)): 102 % of control | T/C [8]: 91 % of control and 107 % of control | T/C (endpoint: mean survival time, dose: 200.0 mg/kg/injection, schedule: Q04DX002 (ip), vehicle: Klucel (hydroxypropylcellulose) (HPC)): 112 % of control | T/C [9]: 100 % of control and 119 % of control | T/C (endpoint: mean survival time, dose: 400.0 mg/kg/injection, schedule: Q04DX002 (ip), vehicle: Klucel (hydroxypropylcellulose) (HPC)): 119 % of control | T/C (endpoint: mean survival time, dose: 600.0 mg/kg/injection, schedule: Q04DX002 (ip), vehicle: Klucel (hydroxypropylcellulose) (HPC)): 119 % of control | T/C (endpoint: median survival time, dose: 50.0 mg/kg/injection, schedule: Q04DX002 (ip), vehicle: saline with Tween-80): 102 % of control | T/C (endpoint: median survival time, dose: 100.0 mg/kg/injection, schedule: Q04DX002 (ip), vehicle: saline with Tween-80): 105 % of control | T/C (endpoint: median survival time, dose: 200.0 mg/kg/injection, schedule: Q04DX002 (ip), vehicle: saline with Tween-80): 105 % of control | T/C (endpoint: median survival time, dose: 400.0 mg/kg/injection, schedule: Q04DX002 (ip), vehicle: saline with Tween-80): 109 % of control | T/C (endpoint: median survival time, dose: 800.0 mg/kg/injection, schedule: Q04DX002 (ip), vehicle: saline with Tween-80): 114 % of control

O=[N+]([O-])c1ccccc1N/N=C/c1ccccc1
T/C [4]: 100 % of control | T/C [5]: 97 % of control | T/C [7]: 97 % of control

COc1ccc(N=NN(C)C(=O)c2ccccc2)cc1
T/C (endpoint: mean survival time, dose: 50.0 mg/kg/injection, schedule: Q01DX009 (ip), vehicle: Klucel (hydroxypropylcellulose) (HPC)): 107 % of control | T/C (endpoint: mean survival time, dose: 100.0 mg/kg/injection, schedule: Q01DX009 (ip), vehicle: Klucel (hydroxypropylcellulose) (HPC)): 117 % of control | T/C (endpoint: mean survival time, dose: 400.0 mg/kg/injection, schedule: Q01DX009 (ip), vehicle: Klucel (hydroxypropylcellulose) (HPC)): 161 % of control

O=C(O)C1C2CCC(CC2)C1C(=O)O (centres undefined)
T/C [8]: 93 % of control | T/C [9]: 97 % of control | T/C (endpoint: mean survival time, dose: 400.0 mg/kg/injection, schedule: Q04DX002 (ip), vehicle: saline with Tween-80): 101 % of control

O=C(c1ccccc1)N(N=C(c1ccc([N+](=O)[O-])cc1)c1ccc([N+](=O)[O-])cc1)c1ccccc1
T/C [10]: 93 % of control | T/C [11]: 87 % of control

CC(=O)OC1=C(C)C(c2ccc(C)cc2)OC1=O (centres undefined)
T/C [12]: 101 % of control | T/C [13]: 106 % of control | T/C [14]: 110 % of control | T/C [15]: 104 % of control | T/C [16]: 104 % of control

CCCCCCCCCCCCCCCC(CCCC)CCCCCC (centres undefined)
T/C (endpoint: mean survival time, dose: 100.0 mg/kg/injection, schedule: Q01DX001 (ip), vehicle: saline sonified): 108 % of control | T/C (endpoint: mean survival time, dose: 200.0 mg/kg/injection, schedule: Q01DX001 (ip), vehicle: saline sonified): 98 % of control | T/C (endpoint: mean survival time, dose: 400.0 mg/kg/injection, schedule: Q01DX001 (ip), vehicle: saline sonified): 104 % of control

Nc1ccc2c(c1)C(=O)OC2(C(F)(F)F)C(F)(F)F
T/C [17]: 104 % of control | T/C [18]: 101 % of control | T/C [19]: 102 % of control

C[C@H](CCC[C@H](C)OS(=O)(=O)c1ccccc1)OS(=O)(=O)c1ccccc1
T/C [1]: 101 % of control and 110 % of control | T/C [20]: 114 % of control and 104 % of control

COC(=O)C#CBr
T/C (endpoint: mean survival time, dose: 6.25 mg/kg/injection, schedule: Q04DX003 (ip), vehicle: other): 103 % of control | T/C (endpoint: mean survival time, dose: 12.5 mg/kg/injection, schedule: Q04DX003 (ip), vehicle: other): 96 % of control

CCOC(=O)C1C(=O)NC(=O)N1Cc1ccccc1 (centres undefined)
T/C [12]: 100 % of control | T/C [13]: 104 % of control | T/C [14]: 100 % of control | T/C [15]: 97 % of control | T/C [16]: 100 % of control

Cc1cn(C2CC(O)C(Cn3ccc4ccccc43)O2)c(=O)[nH]c1=O (centres undefined)
T/C (endpoint: mean survival time, dose: 12.5 mg/kg/injection, schedule: Q01DX005 (ip), vehicle: Klucel (hydroxypropylcellulose) (HPC)): 94 % of control | T/C (endpoint: mean survival time, dose: 25.0 mg/kg/injection, schedule: Q01DX005 (ip), vehicle: Klucel (hydroxypropylcellulose) (HPC)): 90 % of control

CC(C)(C)N
T/C [17]: 100 % of control | T/C [18]: 97 % of control | T/C [19]: 97 % of control

COC(=O)/N=C(/N)SC
T/C [10]: 100 % of control | T/C (endpoint: mean survival time, dose: 200.0 mg/kg/injection, schedule: Q04DX003 (ip), vehicle: saline with Tween-80): 106 % of control | T/C [11]: 97 % of control

COc1cc(/C=C/c2nc3ccccc3nc2/C=C/c2cc(OC)c(OC)c(OC)c2)cc(OC)c1OC
T/C [6]: 94 % of control | T/C [20]: 100 % of control | T/C [11]: 93 % of control
